# Laboratory results: patent US9073875B2, “Compounds useful as inhibitors of indoleamine 2,3-dioxygenase” (Vertex Pharmaceuticals Incorporated, priority 2012, dated 2015)
# Biological target: T1, IDO1 (Homo sapiens, UniProt P14902)
# T1 construct: HeLa cells in which IDO1 expression is induced by IFN-γ; endogenous in cells; host or cells: HeLa cells stimulated with human recombinant IFN-γ
# Experiment: Cellular IDO1 Inhibition Assay (L-kynurenine production by IFN-γ-stimulated HeLa cells)
# Assay type: cell-based
# Settings: IDO1 induced by IFN-γ, 250 μM L-tryptophan, 48 hours, L-kynurenine by Ehrlich's reagent, maximal concentration 40 μM
# Procedure: Compounds can be screened for their ability to inhibit intracellular IDO1 activity, by measuring the production of L-kynurenine by HeLa cells in which IDO1 expression is induced by IFN-γ. Kynurenine levels can be determined by chemical conversion of L-kynurenine with Ehrlich's reagent (Yue et. al., J Med Chem 2009 Dec. 10; 52(23):7364-7).
# HeLa cells were plated at 20,000 cells per well in 96-well culture plates (Costar 3598) in DMEM (Sigma D5671) supplemented with 10% fetal bovine serum (SAFC Biosciences 12003C), Penicillin/Streptomycin solution diluted 1:100 (Sigma P7539), 4 mM L-glutamine (Sigma G7513), 1% Non Essential Aminoacids (Sigma M7145) and 1 mM Sodium Pyruvate (Sigma S8636). Cells were allowed to adhere for 24 hours at 37° C. in 5% CO2. Subsequently compounds were first serially diluted 1/3 in DMSO then further diluted in media and finally added to the cells, giving a maximal final concentration of 40 μM. Additional medium containing L-tryptophan to a final concentration of 250 μM (Sigma T0254) and human recombinant IFN-γ (R&D Systems 285-IF) were added to the wells to stimulate IDO1 production. Cells were incubated at 37° C. in 5% CO2 for 48 hours.
# For the measurement of L-kynurenine in HeLa supernatants, plates were centrifuged at 1000 RPM for 5 minutes and 140 μl of media transferred into a polypropylene 96 well plate (Costar 3879) containing 10 μl of 26% Trichloroacetic Acid in water (Sigma T9159). Plates were then sealed using a plate sealer (PlateLoc, Agilent Technology) and incubated at 50° C. for 30 minutes. Plates were centrifuged at 2400 RPM for 10 minutes and 100 μl of media transferred to polystyrene 96-well plates together with 100 μl of Ehrlich's reagent (2% p-Dimethylaminobenzaldehyde, (Sigma D2004) in acetic acid (Fisher, A/400/PB17)). Following the addition of Ehrlich's reagent the absorbance at 490 nm was read using a spectrophotometer (Spectramax Plus, Molecular Devices). Kynurenine levels were plotted against compound concentrations to generate dose response curves and obtain […] values for each active compound using Genedata Screener® Software.
# Cellular […] values for each compound may be found in Table 2, below, wherein A=<0.1 μM; B=0.1 μM-1 μM; and C=1 μM-40 μM.
# T1 sequence (P14902 whole entry): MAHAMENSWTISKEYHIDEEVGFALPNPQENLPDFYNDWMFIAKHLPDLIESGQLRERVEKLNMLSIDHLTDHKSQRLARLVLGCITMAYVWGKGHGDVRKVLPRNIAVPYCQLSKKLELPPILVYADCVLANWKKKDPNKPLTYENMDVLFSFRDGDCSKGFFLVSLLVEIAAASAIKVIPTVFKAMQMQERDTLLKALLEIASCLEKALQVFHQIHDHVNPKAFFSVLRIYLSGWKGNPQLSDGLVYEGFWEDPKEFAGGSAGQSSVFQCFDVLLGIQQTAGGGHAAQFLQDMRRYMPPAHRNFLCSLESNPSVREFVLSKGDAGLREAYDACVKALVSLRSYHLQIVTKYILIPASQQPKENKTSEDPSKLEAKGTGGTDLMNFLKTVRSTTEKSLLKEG
row,SMILES,IC50
1,Clc1ccc(Nc2cn[nH]n2)cc1 [Compound I-2],< 100 nM
2,Brc1ccc(Nc2c[nH]nn2)cc1 [Compound I-3],< 100 nM
3,Cc1cc(Cl)ccc1Nc1c[nH]nn1 [Compound I-5],< 100 nM
4,COCCc1cc(Cl)ccc1Nc1cn[nH]n1 [Compound I-6],< 100 nM
5,COc1cc(Nc2cn[nH]n2)ccc1Cl [Compound I-8],100 to 1000 nM
6,Clc1ccc(Nc2c[nH]nn2)c(OCCN2CCOCC2)c1 [Compound I-10],100 to 1000 nM
7,COc1cc(Cl)ccc1Nc1cn[nH]n1 [Compound I-12],100 to 1000 nM
8,Fc1cc(Nc2c[nH]nn2)ccc1Cl [Compound I-14],100 to 1000 nM
9,Clc1cc(Cl)cc(Nc2cn[nH]n2)c1 [Compound I-16],100 to 1000 nM
10,CN(Cc1cc(Cl)ccc1Nc1c[nH]nn1)C(=O)OC(C)(C)C [Compound I-23],1000 to 40000 nM
11,Clc1ccc(Nc2cn[nH]n2)c(I)c1 [Compound I-25],1000 to 40000 nM
12,"O=C(O)C1CC(Cc2cc(Cl)ccc2Nc2cn[nH]n2)C1 (centres unmarked) [Compound I-28, 3-(2-((2H-1,2,3-triazol-4-yl)amino)-5-chlorobenzyl)cyclobutanecarboxylic acid]",1000 to 40000 nM
13,O=C(O)CCc1cc(Cl)ccc1Nc1cn[nH]n1 [Compound I-31],1000 to 40000 nM
14,CC(C)C(Cc1cc(Cl)ccc1Nc1cn[nH]n1)C(=O)O (centres unmarked) [Compound I-32],1000 to 40000 nM
15,"CC(C)(Cc1cc(Cl)ccc1Nc1cn[nH]n1)C(=O)O [Compound I-33, 3-(2-((2H-1,2,3-triazol-4-yl)amino)-5-chlorophenyl)-2,2-dimethylpropanoic acid]",1000 to 40000 nM
16,CC(C)(C)C(Cc1cc(Cl)ccc1Nc1cn[nH]n1)C(=O)O (centres unmarked) [Compound I-35],1000 to 40000 nM
17,"Cc1cc(F)ccc1Nc1c[nH]nn1 [Compound I-36, N-(4-fluoro-2-methylphenyl)-2H-1,2,3-triazol-4-amine]",< 100 nM
18,Brc1cccc(Nc2cn[nH]n2)c1 [Compound I-37],100 to 1000 nM
19,CN(C)S(=O)(=O)CCc1cc(Cl)ccc1Nc1cnn[nH]1 [Compound I-43],100 to 1000 nM
20,"N#Cc1cc(Nc2cn[nH]n2)ccc1Cl [Compound I-44, 5-((2H-1,2,3-triazol-4-yl)amino)-2-chlorobenzonitrile]",100 to 1000 nM
21,Clc1ccc(Nc2cnn[nH]2)c(CCN2CCOCC2)c1 [Compound I-46],100 to 1000 nM
22,Clc1ccc(Nc2cnn[nH]2)c(CCCN2CCOCC2)c1 [Compound I-47],100 to 1000 nM
23,CN1CCN(CCOc2cc(Cl)ccc2Nc2cnn[nH]2)CC1 [Compound I-48],100 to 1000 nM

# Results, then the compound that gave them:
row,IC50,SMILES
1,< 100 nM,CCc1cc(Cl)ccc1Nc1cnn[nH]1 [Compound I-1]
2,< 100 nM,COCc1cc(Cl)ccc1Nc1cnn[nH]1 [Compound I-4]
3,100 to 1000 nM,CCc1cc(Nc2cnn[nH]2)ccc1Cl [Compound I-7]
4,100 to 1000 nM,"OCc1cc(Cl)ccc1Nc1cnn[nH]1 [Compound I-9, (2-((2H-1,2,3-triazol-4-yl)amino)-5-chlorophenyl)methanol]"
5,100 to 1000 nM,Clc1cccc(Nc2cnn[nH]2)c1 [Compound I-11]
6,100 to 1000 nM,"Fc1ccc(Nc2cnn[nH]2)cc1Cl [Compound I-13, N-(3-chloro-4-fluorophenyl)-2H-1,2,3-triazol-4-amine]"
7,100 to 1000 nM,Cc1cc(Cl)cc(C)c1Nc1cnn[nH]1 [Compound I-15]
8,100 to 1000 nM,CNS(=O)(=O)CCc1cc(Cl)ccc1Nc1cnn[nH]1 [Compound I-17]
9,100 to 1000 nM,Fc1ccc(Nc2cnn[nH]2)cc1Br [Compound I-18]
10,100 to 1000 nM,Clc1ccc(Nc2cnn[nH]2)cc1Cl [Compound I-19]
11,100 to 1000 nM,"CC(=O)NCc1cc(Cl)ccc1Nc1cnn[nH]1 [Compound I-20, N-(2-((2H-1,2,3-triazol-4-yl)amino)-5-chlorobenzyl)acetamide]"
12,1000 to 40000 nM,CS(=O)(=O)NCc1cc(Cl)ccc1Nc1cnn[nH]1 [Compound I-21]
13,1000 to 40000 nM,"Clc1ccc(Nc2cnn[nH]2)cn1 [Compound I-22, 6-chloro-N-(2H-1,2,3-triazol-4-yl)pyridin-3-amine]"
14,100 to 1000 nM,Fc1ccc(Nc2cnn[nH]2)cc1 [Compound I-24]
15,1000 to 40000 nM,Clc1ccc(Nc2cnn[nH]2)c(Cl)c1 [Compound I-27]
16,1000 to 40000 nM,Clc1ccccc1Nc1cnn[nH]1 [Compound I-29]
17,1000 to 40000 nM,Fc1cc(Cl)ccc1Nc1cnn[nH]1 [Compound I-30]
18,1000 to 40000 nM,"NCc1cc(Cl)ccc1Nc1cnn[nH]1 [Compound I-34, N-(2-(aminomethyl)-4-chlorophenyl)-2H-1,2,3-triazol-4-amine]"
19,100 to 1000 nM,Cc1cc(Nc2cnn[nH]2)ccc1Cl [Compound I-38]
20,100 to 1000 nM,Cc1c(Cl)cccc1Nc1cnn[nH]1 [Compound I-39]
21,< 100 nM,C=Cc1cc(Cl)ccc1Nc1cnn[nH]1 [Compound I-40]
22,100 to 1000 nM,Cc1cc(Cl)cc(Nc2cnn[nH]2)c1 [Compound I-41]
23,< 100 nM,Cc1ccc(Cl)cc1Nc1cnn[nH]1 [Compound I-42]
24,100 to 1000 nM,"Fc1cccc(Nc2cnn[nH]2)c1 [Compound I-45, N-(3-fluorophenyl)-2H-1,2,3-triazol-4-amine]"
